# Values quoted from earlier work in paper PMC7315836 (Journal of medicinal chemistry, 2020).
# Where two headings read alike, the source gives them in different places.
# Experiments:
# [1] = tested on: coronaviruses
# [2] = tested on: SARS-CoV
# [3] = tested on: MERS-CoV
# [4] = tested on: human aortic endothelial cells; settings: 100 μM
# [5] = tested on: cathepsin L; settings: cathepsin L inhibition assay
# [6] = tested on: SARS-CoV-2
# [7] = tested on: TMPRSS2; settings: by inhibiting TMPRSS2 activity
# [8] = tested on: SARS-CoV; remark: listed apart in the source
# [9] = tested on: ADAM17
# [10] = tested on: HCoV-229E
# [11] = tested on: furin; settings: HEK293 cells
# [12] = tested on: ACE2; settings: read-out: IC50, ACE2 catalytic activity
# [13] = target: TACE (TNF-α converting enzyme); settings: read-out: IC50, ACE2 shedding
# [14] = acute toxicity, mice
# [15] = tested on: MERS-CoV; remark: listed apart in the source
# [16] = tested on: MERS-CoV; remark: listed apart in the source
# [17] = target: ACE2
# [18] = tested on: ACE
# [19] = tested on: ACE2; remark: listed apart in the source
# [20] = tested on: SARS-CoV-2; settings: SARS-CoV-2 pseudovirus assay
# [21] = tested on: SARS-CoV-2 S-mediated membrane fusion; settings: fusion inhibitory assay
# [22] = tested on: HCoV-NL63; settings: HCoV-NL63 pseudovirus
# [23] = tested on: HCoV-OC43; settings: 5 mg/kg
# [24] = tested on: HCoV-229E; settings: HCoV-229E pseudovirus
# [25] = tested on: MERS-CoV; settings: mouse, in vivo
# [26] = tested on: HCoV-OC43; settings: HCoV-OC43 pseudovirus
# [27] = not given; remark: listed apart in the source
# [28] = tested on: SARS-CoV; remark: listed apart in the source
# [29] = tested on: SARS-CoV-2 pseudoviruses
compound,measurement,setting,value
"COc1ccc(S(=O)(=O)O)cc1/N=N/c1c(S(=O)(=O)O)cc2cc(Nc3nc(Nc4ccccc4)nc(Nc4cc(C)c(/N=N/c5cc(S(=O)(=O)O)cc6cc(S(=O)(=O)O)cc(O)c56)cc4OC)n3)ccc2c1O [ADS-J1 (15), ADS-J1]",IC50,[1],0.6 to 3.89 µM
same,IC50,[2],3.89 µM
same,IC50,[3],0.6 µM
"CC(C)(C)OC(=O)N[C@@H](Cc1c[nH]c2ccccc12)C(=O)NNC(=O)OCC(=O)N1CCCc2ccccc21 [CID23631927 (19), CID 23631927]",toxicity,[4],did not show any sign of toxicity
same,IC50,[5],0.0069 µM
"CCc1ccccc1NC(=O)CSC(=O)NNC(=O)[C@H](Cc1c[nH]c2ccccc12)NC(=O)OC(C)(C)C [CID 16725315 (18), CID 16725315]",IC50,[5],0.056 µM
"CN(C)C(=O)COC(=O)Cc1ccc(OC(=O)c2ccc(NC(=N)N)cc2)cc1 [Camostat (22), Camostat]",viral entry of SARS-CoV-2,[6],could prevent the viral entry of SARS-CoV-2
same,concentration preventing SARS-CoV infections,[7],10 µM
"CCN(CC)CCCC(C)Nc1ccnc2cc(Cl)ccc12 (stereo not shown) [Chloroquine (4), Chloroquine]",IC50,[1],1.13 to 4.4 µM
same,ED50,[8],4.4 µM
same,toxicity that could be caused,,"ventricular arrhythmias,[72] QT prolongation,[72],[73] retinopathy,[74] and other cardiac-related toxicity"
"CCC[C@@H]([C@@H](CC(C)C)C(=O)N[C@@H](CCCCNC(=O)OCc1ccccc1)C(=O)Nc1nccs1)N(O)C=O [GW280264X (6), GW280264X]",concentration reducing shedding of ACE2,[9],1 nM
"CCN(CCO)CCCC(C)Nc1ccnc2cc(Cl)ccc12 (stereo not shown) [Hydroxychloroquine (5), Hydroxychloroquine]",toxicity that could be caused,,"ventricular arrhythmias,[72] QT prolongation,[72],[73] retinopathy,[74] and other cardiac-related toxicity"
"O=C(NC(Cc1ccccc1)C(=O)N1CCC(O)(c2ccc(Br)cc2)CC1)c1ccccc1 (stereo not shown) [K22 (2), K22]",IC50,[10],0.7 µM
"CN1CCN(C(=O)N[C@@H](Cc2ccccc2)C(=O)N[C@H](/C=C/S(=O)(=O)c2ccccc2)CCc2ccccc2)CC1 [K11777 (21), K11777]",IC50,[1],0.00068 to 0.0461 µM
"CC(C)(C)[C@H](NC(=O)[C@H](CCONC(=N)N)NC(=O)Cc1ccc(CNC(=N)N)cc1)C(=O)N[C@@H](CCONC(=N)N)C(=O)NCc1ccc(C(=N)N)cc1 [MI-1851 (24), MI-1851]",proteolytic processing of SARS-CoV-2 S protein by endogenous furin,[11],could prevent proteolytic processing of the S protein
"NCCNCCN1CC1 [NAAE (3), N-(2-amino-ethyl)-1 aziridine-ethanamine]",IC50,[12],57 µM
"CC(C)CC(CC(=O)NO)C(=O)NC(Cc1ccc2ccccc2c1)C(=O)NC(C)C(N)=O (stereo not shown) [TAPI-0 (7), TAPI-0]",IC50,[13],0.1 µM
"O=C(OC[C@H]1O[C@@H](OC(=O)c2cc(O)c(O)c(O)c2)[C@H](OC(=O)c2cc(O)c(O)c(O)c2)[C@H](OC(=O)c2cc(O)c(O)c(O)c2)[C@@H]1O)c1cc(O)c(O)c(O)c1 [TGG (12), TGG]",50% lethal dose,[14],~ 456 mg/kg
"Cc1nc(Nc2ncc(C(=O)Nc3c(C)cccc3Cl)s2)cc(N2CCN(CCO)CC2)n1 [dasatinib (29), dasatinib]",IC50,[1],2.1 to 5.4 µM
same,IC50,[15],5.4 µM
"O=c1cc(-c2ccc(O)c(O)c2)oc2cc(O)cc(O)c12 [luteolin (13), luteolin]",50% lethal dose,[14],232.2 mg/kg
"CN1CCN(CCOc2cc(OC3CCOCC3)c3c(Nc4c(Cl)ccc5c4OCO5)ncnc3c2)CC1 [saracatinib (30), saracatinib]",IC50,[1],2.4 to 5.1 µM
same,IC50,[16],2.9 µM
DX600,Ki,[17],0.0028 µM
same,inhibition of ACE activity,[18],did not inhibit ACE activity
same,stability,[19],chemically stable and not hydrolyzable by ACE2
EK1,IC50,[20],2.38 µM
same,IC50,[21],0.19 µM
same,IC50,[22],6.02 µM
same,protection of mice from HCoV-OC43,[23],nearly completely protected
same,IC50,[24],3.35 µM
same,protection of mice against MERS-CoV infection,[25],nearly completely protected
same,IC50,[26],1.81 µM
same,cytotoxic concentration (not cytotoxic up to),[27],> 1 mM
MDL28170 [MDL28170 (17)],EC50,[28],~0.1 µM
Teicoplanin,IC50,[29],1.66 µM
